Laboratory results taken from patent US11041184B2, “Mycobacteriophages capable of delivering auto-luminescent elements and uses thereof” (priority 2016, dated 2021).

Test system: Mtb
Assay: detecting sensitivity of a host bacterial strain (Mtb) to a drug with the ARP phage, luminescence read with a luminometer
Assay type: cell-based, Mycobacterium tuberculosis
Settings: for bioluminescence intensity compared to a control: culture at 37° C. for at least 4 hours, DMSO control
[1] = 37° C., at least 4 hours, RIF 2 μg/mL, INH 1 μg/mL, LZD 1 μg/mL, PNU 0.5 μg/mL
[2] = FIG. 12, RIF 2 μg/mL, INH 1 μg/mL, LZD 1 μg/mL, PNU 0.5 μg/mL

## CC[C@@H](CO)NCCN[C@@H](CC)CO [ethambutol]
FIG. 12, culture for 8 hours, EMB 5 μg/mL
  bioluminescence compared to a control: significant decrease in bioluminescence
FIG. 12 legend, EMB 5 μg/mL, time not printed in legend
  statistical difference between drug group and DMSO control (n.s., p>0.05): no statistical difference
Culture for 8 hours, EMB 5 μg/mL
  sensitivity of Mtb to the drug at the concentration: sensitivity

## NNC(=O)c1ccncc1 [isoniazid]
[1]
  sensitivity of Mtb to the drug at the concentration: sensitivities
[2]
  bioluminescence intensity compared to a control: significant decrease of bioluminescence intensity

## CC(=O)NC[C@H]1CN(c2ccc(N3CCOCC3)c(F)c2)C(=O)O1 [linezolid]
[1]
  sensitivity of Mtb to the drug at the concentration: sensitivities
[2]
  bioluminescence intensity compared to a control: significant decrease of bioluminescence intensity
